Measured values reported in PMC6934085 (Science signaling, 2019).

Legend:
NOP receptor [1] = molecular target: T1, NOP receptor (Mus musculus, UniProt P35377); assay type: cell-based
hNOP receptor [2] = molecular target: T2, hNOP receptor (Homo sapiens, UniProt P41146); assay type: cell-based
hNOP receptor [3] = molecular target: T2, hNOP receptor; assay type: cell-based; remark: listed apart in the source
NOP receptor [4] = molecular target: T1, NOP receptor; assay: In vivo NOP receptor phosphorylation in brain of NOP-eGFP knock-in mice; details: SB 612111 30 mg/kg pretreatment 30 min, then AT-202 30 mg/kg
NOP receptor [5] = details: cited from earlier work

T2 sequence (P41146 whole entry): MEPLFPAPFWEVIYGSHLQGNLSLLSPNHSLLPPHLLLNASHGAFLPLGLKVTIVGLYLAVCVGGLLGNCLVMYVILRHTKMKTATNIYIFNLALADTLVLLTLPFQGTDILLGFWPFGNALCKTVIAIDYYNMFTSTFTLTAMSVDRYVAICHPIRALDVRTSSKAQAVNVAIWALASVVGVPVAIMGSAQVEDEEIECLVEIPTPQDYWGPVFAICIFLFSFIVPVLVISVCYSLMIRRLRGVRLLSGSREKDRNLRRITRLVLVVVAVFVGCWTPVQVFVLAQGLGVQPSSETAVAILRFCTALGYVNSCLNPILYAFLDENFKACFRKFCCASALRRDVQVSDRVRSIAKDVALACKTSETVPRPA
T1 sequence (P35377 whole entry): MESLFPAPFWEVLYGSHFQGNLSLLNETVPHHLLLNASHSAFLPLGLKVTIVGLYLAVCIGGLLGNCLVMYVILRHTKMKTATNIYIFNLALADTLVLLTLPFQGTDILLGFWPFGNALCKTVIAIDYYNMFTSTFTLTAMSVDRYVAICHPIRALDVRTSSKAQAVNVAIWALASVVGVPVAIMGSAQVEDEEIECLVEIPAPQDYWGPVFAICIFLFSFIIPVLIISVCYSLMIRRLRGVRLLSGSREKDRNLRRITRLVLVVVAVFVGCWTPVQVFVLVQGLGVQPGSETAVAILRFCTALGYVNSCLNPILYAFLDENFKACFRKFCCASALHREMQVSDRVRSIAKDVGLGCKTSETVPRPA

CC1(N2CCC(n3c([C@@H]4CCCNC4)nc4ccccc43)CC2)CCCCCCC1 [MCOPPB]
NOP receptor internalization in ventral midbrain neurons (NOP receptor [1]): strong MCOPPB-induced NOP receptor internalization

C=C[C@@]1(C)CC(=O)[C@]2(O)[C@@]3(C)[C@@H](O)CCC(C)(C)[C@@H]3[C@H](O)[C@H](OC(C)=O)[C@@]2(C)O1 [Forskolin, forskolin]
NOP receptor phosphorylation by second messenger kinase activators (hNOP receptor [2]): did not produce any detectable phosphorylation

CN1CCc2cc(Cl)c(O)cc2[C@@H](c2ccccc2)C1 [SCH23390]
Effect on N/OFQ-induced hyperpolarization (hNOP receptor [3]): reversed the N/OFQ-evoked hyperpolarization

Cc1cccc2c1CC[C@H](CN1CCC(c3c(Cl)cccc3Cl)CC1)C[C@@H]2O [SB 612111, (−)-cis-1-methyl-7-[[4-(2,6-dichlorophenyl)piperidin-1-yl]methyl]-6,7,8,9-tetrahy dro-5H-benzocyclohepten-5-ol]
Inhibition of N/OFQ-induced NOP receptor phosphorylation (hNOP receptor [2]): completely blocked N/OFQ-induced phosphorylation | Block of AT-202-induced NOP receptor phosphorylation in mouse brain (NOP receptor [4]): could be blocked

buprenorphine
Agonist-induced NOP receptor phosphorylation at Ser346, Ser351 and Thr362/Ser363 (hNOP receptor [2]): complete lack of NOP receptor phosphorylation | Agonist activity in G protein signaling / GIRK channel activation (hNOP receptor [3]): partial agonistic activity with a remarkably reduced maximal effect compared with N/OFQ | Agonist efficacy at the NOP receptor in cAMP inhibition assays (NOP receptor [5]): partial agonists
